Tested on: B. burgdorferi B31
Assay: RNA-Seq gene expression profile of B. burgdorferi persisters that survived antibiotic treatment, compared with drug free control
Assay type: cell-based, Borrelia burgdorferi
Method: RNA Sequencing (RNA-Seq) was performed to determine the gene expression profile of B. burgdorferi persisters that survived antibiotic treatment using next generation sequencing to shed light on the mechanisms of B. burgdorferi persistence. B. burgdorferi B31 cultures were grown for 5 days to 1×10^7 spirochetes/ml in BSK-H medium followed by treatment with 50 μg/ml doxycycline or 50 μg/ml amoxicillin for 6 days. Triplicate biological samples were used for each group. The total RNA was extracted and ribosomal RNA was removed prior to preparation of cDNA libraries for Illumina sequencing. […] The RNA-Seq data was analyzed by BLAST analysis and mapped to KEGG pathways.

With `CC1(C)S[C@@H]2[C@H](NC(=O)[C@H](N)c3ccc(O)cc3)C(=O)N2[C@H]1C(=O)O` [Amo] the “Expression predicted RNA antisense: BB_0034” value was 64256, the “Expression predicted RNA antisense: BB_0147” value was 71642 and the “Expression predicted RNA antisense: BB_0269” value was 39823. The “Expression predicted RNA antisense: BB_0465” value was 29768, the “Expression predicted RNA antisense: BB_0559” value was 39487 and the “Expression predicted RNA antisense: BB_0631” value was 35398. For the same compound, the “Expression predicted RNA antisense: BB_A59” value was 70553, the “Expression predicted RNA antisense: BB_B22” value was 44966 and the “Expression predicted RNA antisense: fusA” value was 45574. For the same compound, the “Expression predicted RNA antisense: lp6.6” value was 140114, the “Expression predicted RNA antisense: napA” value was 19231 and the “Expression predicted RNA antisense: ospA ospB” value was 102443. The “Expression predicted RNA antisense: rpsM” value was 33897, the “Expression predicted RNA antisense: tRNA-Gln-1 BB_0786” value was 25214 and the “Expression 5S_rrlB BB_r03” value (5S ribosomal RNA) was 0. The “Expression lp6.6 BB_A62” value (6.6 kDa lipoprotein) was 115, the “Expression 23S_rrlA BB_r02” value (23S ribosomal RNA) was 3005 and the “Expression 23S_rrlB BB_r04” value (23S ribosomal RNA) was 3039. The “Expression rpsH BB_0492” value (30S ribosomal protein S8) was 14, the “Expression rpsI BB_0338” value (30S ribosomal protein S9) was 66 and the “Expression rpsQ BB_0487” value (30S ribosomal protein S17) was 2. For the same compound, the “Expression rpsU BB_0256” value (30S ribosomal protein S21) was 34, the “Expression rplI BB_0112” value (50S ribosomal protein L9) was 23 and the “Expression rplM BB_0339” value (50S ribosomal protein L13) was 21. For the same compound, the “Expression rplQ BB_0503” value (50S ribosomal protein L17) was 17, the “Expression rplX BB_0489” value (50S ribosomal protein L24) was 6 and the “Expression rpmC BB_0486” value (50S ribosomal protein L29) was 0. For the same compound, the “Expression rpmE BB_0229” value (50S ribosomal protein L31) was 52, the “Expression rpmF BB_0703” value (50S ribosomal protein L32) was 28 and the “Expression rpmJ BB_0499” value (50S ribosomal protein L36) was 14. The “Expression tRNA-Ala-1 BB_t05” value (Ala tRNA) was 0, the “Expression BB_t21” value (Arg tRNA) was 0 and the “Expression tRNA-Asn-1 BB_t11” value (Asn tRNA) was 26. The “Expression tRNA-Asp-1 BB_t12” value (Asp tRNA) was 0, the “Expression bdrH BB_R27” value (BdrH) was 15 and the “Expression bdrK BB_M34” value (BdrK) was 0. The “Expression bdrR BB_N27” value (BdrR protein) was 0, the “Expression erpK BB_M38” value (ErpK protein) was 0 and the “Expression thyX BB_A76” value (FAD-dependent thymidylate synthase) was 3. For the same compound, the “Expression tRNA-Gln-1 BB_t18” value (Gln tRNA) was 0, the “Expression BB_t25” value (Gly tRNA) was 1187 and the “Expression BB_0087” value (L-lactate dehydrogenase) was 48. The “Expression tRNA-Leu-4 BB_t17” value (Leu tRNA) was 15, the “Expression BB_t23” value (Lys tRNA) was 0 and the “Expression BB_0262” value (M23 peptidase domain-containing protein) was 145. For the same compound, the “Expression BB_t28” value (Met tRNA) was 0, the “Expression BB_A64” value (P35 antigen) was 9453 and the “Expression BB_P32” value (PF-32 protein) was 15. The “Expression BB_M33” value (PF-49 protein) was 0, the “Expression BB_P33” value (PF-49 protein) was 0 and the “Expression BB_0559” value (PTS system glucose-specific transporter subunit IIA) was 177. For the same compound, the “Expression BB_t30” value (Phe tRNA) was 0, the “Expression BB_F03” value (RepU) was 0 and the “Expression BB_t20” value (Ser tRNA) was 7. For the same compound, the “Expression tRNA-Ser-3 BB_t06” value (Ser tRNA) was 0, the “Expression smpB BB_0033” value (SsrA-binding protein) was 176 and the “Expression BB_t33” value (Thr tRNA) was 11. For the same compound, the “Expression murB BB_0598” value (UDP-N-acetylenolpyruvoylglucosamine reductase) was 249, the “Expression BB_0090” value (V-type ATP synthase subunit K) was 1 and the “Expression BB_H33” value (adenine deaminase) was 2. For the same compound, the “Expression BB_H32” value (antigen P35) was 5, the “Expression lnt BB_0237” value (apolipoprotein N-acyltransferase) was 2060 and the “Expression BB_0582” value (carboxypeptidase) was 96. For the same compound, the “Expression cheR BB_0040” value (chemotaxis protein methyltransferase) was 233, the “Expression BB_H06” value (complement regulator-acquiring surface protein) was 10 and the “Expression cdd BB_0618” value (cytidine deaminase) was 267. For the same compound, the “Expression flgB BB_0294” value (flagellar basal body rod protein FlgB) was 5, the “Expression fliL BB_0279” value (flagellar basal body-associated protein FliL) was 6 and the “Expression BB_0287” value (flagellar protein FlbA) was 0. For the same compound, the “Expression BB_0147” value (flagellin) was 73, the “Expression BB_0138” value (gene BB_0138, hypothetical protein) was 0 and the “Expression BB_0305” value (gene BB_0305, hypothetical protein) was 0. The “Expression BB_0321” value (gene BB_0321, hypothetical protein) was 4, the “Expression BB_A21” value (gene BB_A21, PF-49 protein) was 1 and the “Expression BB_E09” value (gene BB_E09, protein p23) was 0. The “Expression BB_E16” value (gene BB_E16, hypothetical protein) was 0, the “Expression BB_E17” value (gene BB_E17, hypothetical protein) was 0 and the “Expression BB_E18” value (gene BB_E18, hypothetical protein) was 0. The “Expression BB_E19” value (gene BB_E19, hypothetical protein) was 0, the “Expression BB_E20” value (gene BB_E20, hypothetical protein) was 0 and the “Expression BB_E21” value (gene BB_E21, hypothetical protein) was 0. The “Expression BB_E22” value (gene BB_E22, pyrazinamidase/nicotinamidase PncA) was 0, the “Expression BB_E31” value (gene BB_E31, antigen, P35, putative) was 0 and the “Expression BB_F01” value (gene BB_F01, hypothetical protein) was 0. For the same compound, the “Expression BB_F02” value (gene BB_F02, hypothetical protein) was 0, the “Expression BB_F06” value (gene BB_F06, hypothetical protein) was 0 and the “Expression BB_F08” value (gene BB_F08, hypothetical protein) was 0. The “Expression BB_F14” value (gene BB_F14, hypothetical protein) was 0, the “Expression BB_F17” value (gene BB_F17, putative transmembrane protein) was 0 and the “Expression BB_F20” value (gene BB_F20, BBF20) was 0. For the same compound, the “Expression BB_F23” value (gene BB_F23, PF49) was 0, the “Expression BB_F24” value (gene BB_F24, PF32) was 0 and the “Expression BB_F25” value (gene BB_F25, hypothetical protein) was 0. For the same compound, the “Expression BB_F26” value (gene BB_F26, hypothetical protein) was 0, the “Expression BB_F0034” value (gene BB_F0034, hypothetical protein) was 0 and the “Expression BB_F0039” value (gene BB_F0039, hypothetical protein) was 0. The “Expression BB_F0040” value (gene BB_F0040, hypothetical protein) was 0, the “Expression BB_F0041” value (gene BB_F0041, outer surface protein VlsE1) was 0 and the “Expression BB_I01” value (gene BB_I01, hypothetical protein) was 0. For the same compound, the “Expression BB_I02” value (gene BB_I02, hypothetical protein) was 0, the “Expression BB_I06” value (gene BB_I06, MTA/SAH nucleosidase) was 0 and the “Expression BB_I12” value (gene BB_I12, hypothetical protein) was 0. For the same compound, the “Expression BB_I15” value (gene BB_I15, virulence associated lipoprotein) was 0, the “Expression BB_I18” value (gene BB_I18, hypothetical protein) was 0 and the “Expression BB_I19” value (gene BB_I19, hypothetical protein) was 0. The “Expression BB_I20” value (gene BB_I20, hypothetical protein) was 0, the “Expression BB_I21” value (gene BB_I21, PF-32 protein) was 0 and the “Expression BB_I22” value (gene BB_I22, PF-49 protein) was 0. The “Expression BB_I26” value (gene BB_I26, multidrug-efflux transporter) was 0, the “Expression BB_I29” value (gene BB_I29, virulence associated lipoprotein) was 0 and the “Expression BB_I34” value (gene BB_I34, virulence associated lipoprotein) was 0. The “Expression BB_I36” value (gene BB_I36, antigen P35) was 0, the “Expression BB_I38” value (gene BB_I38, surface antigen) was 0 and the “Expression BB_I41” value (gene BB_I41, hypothetical protein) was 0. For the same compound, the “Expression BB_I42” value (gene BB_I42, outer membrane protein) was 0, the “Expression BB_J42” value (gene BB_J42, hypothetical protein) was 0 and the “Expression BB_J0058” value (gene BB_J0058, hypothetical protein) was 0. The “Expression BB_K01” value (gene BB_K01, lipoprotein) was 0, the “Expression BB_K07” value (gene BB_K07, lipoprotein) was 0 and the “Expression BB_K09” value (gene BB_K09, hypothetical protein) was 0. The “Expression BB_K13” value (gene BB_K13, hypothetical protein) was 0, the “Expression BB_K15” value (gene BB_K15, antigen P35) was 0 and the “Expression BB_K17” value (gene BB_K17, adenine deaminase) was 0. For the same compound, the “Expression BB_K19” value (gene BB_K19, lipoprotein) was 0, the “Expression BB_K21” value (gene BB_K21, PF-32 protein) was 0 and the “Expression BB_K22” value (gene BB_K22, hypothetical protein) was 0. The “Expression BB_K23” value (gene BB_K23, hypothetical protein) was 0, the “Expression BB_K24” value (gene BB_K24, PF-49 protein) was 0 and the “Expression BB_K32” value (gene BB_K32, fibronectin-binding protein) was 0. The “Expression BB_K33” value (gene BB_K33, hypothetical protein) was 0, the “Expression BB_K34” value (gene BB_K34, hypothetical protein) was 0 and the “Expression BB_K35” value (gene BB_K35, hypothetical protein) was 0. The “Expression BB_K40” value (gene BB_K40, hypothetical protein) was 0, the “Expression BB_K41” value (gene BB_K41, hypothetical protein) was 0 and the “Expression BB_K42” value (gene BB_K42, hypothetical protein) was 0. The “Expression BB_K45” value (gene BB_K45, immunogenic protein P37) was 0, the “Expression BB_K47” value (gene BB_K47, hypothetical protein) was 0 and the “Expression BB_K48” value (gene BB_K48, immunogenic protein P37) was 0. The “Expression BB_K49” value (gene BB_K49, hypothetical protein) was 0, the “Expression BB_K50” value (gene BB_K50, immunogenic protein P37) was 0 and the “Expression BB_K52” value (gene BB_K52, lipoprotein) was 0. For the same compound, the “Expression BB_K53” value (gene BB_K53, outer membrane protein) was 0, the “Expression BB_K54” value (gene BB_K54, hypothetical protein) was 0 and the “Expression BB_K0058” value (gene BB_K0058, hypothetical protein) was 0. The “Expression BB_K0059” value (gene BB_K0059, hypothetical protein) was 0, the “Expression BB_L15” value (gene BB_L15, hypothetical protein) was 0 and the “Expression BB_L16” value (gene BB_L16, hypothetical protein) was 0. For the same compound, the “Expression BB_L17” value (gene BB_L17, hypothetical protein) was 0, the “Expression BB_L18” value (gene BB_L18, hypothetical protein) was 0 and the “Expression BB_L21” value (gene BB_L21, hypothetical protein) was 0. For the same compound, the “Expression BB_L22” value (gene BB_L22, hypothetical protein) was 0, the “Expression BB_L29” value (gene BB_L29, hypothetical protein) was 0 and the “Expression BB_L30” value (gene BB_L30, hypothetical protein) was 1. The “Expression BB_L31” value (gene BB_L31, hypothetical protein) was 0, the “Expression BB_L32” value (gene BB_L32, PF-32 protein) was 0 and the “Expression BB_N08” value (gene BB_N08, hypothetical protein) was 0. The “Expression BB_N33” value (gene BB_N33, PF-49 protein) was 1, the “Expression BB_Q03” value (gene BB_Q03, outer membrane protein) was 0 and the “Expression BB_Q05” value (gene BB_Q05, antigen, P35) was 0. For the same compound, the “Expression BB_Q07” value (gene BB_Q07, plasmid partition protein) was 0, the “Expression BB_Q08” value (gene BB_Q08, PF-32 protein) was 0 and the “Expression BB_Q09” value (gene BB_Q09, hypothetical protein) was 0. For the same compound, the “Expression BB_Q40” value (gene BB_Q40, PF-32 protein) was 0, the “Expression BB_Q48” value (gene BB_Q48, hypothetical protein) was 0 and the “Expression BB_Q49” value (gene BB_Q49, hypothetical protein) was 0. The “Expression BB_Q67” value (gene BB_Q67, adenine specific DNA methyltransferase) was 0, the “Expression BB_Q89” value (gene BB_Q89, lipoprotein) was 5 and the “Expression BB_T01” value (gene BB_T01, hypothetical protein) was 0. For the same compound, the “Expression BB_T02” value (gene BB_T02, hypothetical protein) was 0, the “Expression BB_T03” value (gene BB_T03, hypothetical protein) was 0 and the “Expression BB_T04” value (gene BB_T04, hypothetical protein) was 0. The “Expression BB_T06” value (gene BB_T06, Sua5/YciO/YrdC/YwlC family protein) was 0, the “Expression BB_T07” value (gene BB_T07, outer membrane protein) was 0 and the “Expression BB_U01” value (gene BB_U01, hypothetical protein) was 0. For the same compound, the “Expression BB_U02” value (gene BB_U02, hypothetical protein) was 2 and the “Expression BB_U04” value (gene BB_U04, protein BBC01) was 0.

From patent US20180246095A1, “COMPOSITIONS AND METHODS FOR DIAGNOSING AND TREATING LYME DISEASE” (priority 2015, published 2018)
